Drawing on patent US20150246025A1, “2-PHENYL-5-HETEROCYCLYL-TETRAHYDRO-2H-PYRAN-3-AMINE COMPOUNDS FOR USE IN THE TREATMENT OF DIABETES AND ITS ASSOCIATED DISORDERS” (CADILA HEALTHCARE LIMITED, priority 2012, published 2015), this text covers IC50 and change in vivo for 20 molecules.

Structures are written as SMILES. A value given as a limit tells only on which side of the number the result lay.

One assay has as its target T1, DPP-IV enzyme (Homo sapiens, UniProt P27487).
T1 construct: soluble human proteins (DPP-IV enzyme) produced in a baculovirus expression system; made in house; host or cells: baculovirus expression system (Life Technologies)
In words: In vitro DPP-IV inhibitory activity using enzymatic (fluorescence-based) assay. Format: biochemical. The settings on record: soluble human DPP-IV, H-Gly-Pro-AMC 200 μM, pH 7.8, 25° C., 30 min; read-out: % In-vitro DPPIV Inhibition IC50. The procedure:
In Vitro DPP-IV Inhibitory Activity Using Enzymatic Assay:
In vitro enzyme (DPP-IV) inhibitory activity was determined using fluorescence-based assay (Anal. Biochem., 200, 352, 1992). The Gly-Pro-AMC was used as a substrate (which is cleaved by the enzymes to release the fluorescent AMC) and soluble human proteins (DPP-IV enzyme) produced in a baculovirus expression system (Life Technologies) was used as the enzyme source. The H-Gly-Pro-AMC (200 μM) was incubated with DPP-IV enzyme in the presence of various concentrations (30 & 100 nM) of test compounds. Reaction was carried out at pH 7.8 (HEPES buffer 25 mM containing 1.0% BSA, 140 mM NaCl, 16 mM MgCl2, 2.8% DMSO) in a total volume of 100 μl at 25° C. for 30 min., in the dark. Reaction was terminated with acetic acid (25 μl of 25% solution). Activity (fluorescence) was measured using Spectra Max fluorometer (Molecular Devices, Sunnyvale Calif.) by exciting at 380 nm and emission at 460 nm.

Another assay deals with C57BL/6J mice. The assay is described as follows: In vivo antihyperglycaemic/antidiabetic activity (OGTT), acute single dose 120-min time-course. The settings on record: Mus musculus, 2 h; male C57BL/6J mice, acute single dose 0,3 mg/kg po, 120-min time-course, n = 6, Mean ± SEM; read-out: In vivo OGTT C57; % Glucose change. Here is the method: Acute single dose 120-min time-course experiments were carried out in male C57BL/6J mice, age 8-12 weeks, bred in-house. Animals were housed in groups of 6 animals per cage, for a week, in order to habituate them to vivarium conditions (25±4° C., 60-65% relative humidity, 12: 12 h light: dark cycle, with lights on at 7.30 am). All the animal experiments were carried out according to the internationally valid guidelines following approval by the ‘Zydus Research Center animal ethical committee’.
The in-vivo glucose lowering properties of the test compounds were evaluated in C57BL/6J (mild hyperglycemic) animal models as described below. Two days prior to the study, the animals were randomized and divided into groups (n=6), based upon their fed glucose levels. On the day of experiment, food was withdrawn from all the cages, water was given ad-libitum and were kept for overnight fasting. Vehicle (normal saline)/test compounds were administered orally, on a body weight basis. Soon after the 0 min. blood collection from each animal, the subsequent blood collections were done at 30, 60 and 120 or upto 240 min., via retro-orbital route, under light ether anesthesia (Diabetes Obesity Metabolism, 7, 307, 2005; Diabetes, 52, 751, 2003).
Blood samples were centrifuged and the separated serum was immediately subjected for the glucose estimation. Serum for insulin estimation was stored at −70° C. until used for the insulin estimation. The glucose estimation was carried out with DPEC-GOD/POD method (Ranbaxy Fine Chemicals Limited, Diagnostic division, India), using Spectramax-190, in 96-microwell plate reader (Molecular devices Corporation, Sunnyvale, Calif.). […] The AUC and BCAUC obtained from graphs were analyzed for one way ANOVA, followed by Dunnett's post test, using Graph Pad prism software.

T1 sequence (P27487 39-766 limits assumed): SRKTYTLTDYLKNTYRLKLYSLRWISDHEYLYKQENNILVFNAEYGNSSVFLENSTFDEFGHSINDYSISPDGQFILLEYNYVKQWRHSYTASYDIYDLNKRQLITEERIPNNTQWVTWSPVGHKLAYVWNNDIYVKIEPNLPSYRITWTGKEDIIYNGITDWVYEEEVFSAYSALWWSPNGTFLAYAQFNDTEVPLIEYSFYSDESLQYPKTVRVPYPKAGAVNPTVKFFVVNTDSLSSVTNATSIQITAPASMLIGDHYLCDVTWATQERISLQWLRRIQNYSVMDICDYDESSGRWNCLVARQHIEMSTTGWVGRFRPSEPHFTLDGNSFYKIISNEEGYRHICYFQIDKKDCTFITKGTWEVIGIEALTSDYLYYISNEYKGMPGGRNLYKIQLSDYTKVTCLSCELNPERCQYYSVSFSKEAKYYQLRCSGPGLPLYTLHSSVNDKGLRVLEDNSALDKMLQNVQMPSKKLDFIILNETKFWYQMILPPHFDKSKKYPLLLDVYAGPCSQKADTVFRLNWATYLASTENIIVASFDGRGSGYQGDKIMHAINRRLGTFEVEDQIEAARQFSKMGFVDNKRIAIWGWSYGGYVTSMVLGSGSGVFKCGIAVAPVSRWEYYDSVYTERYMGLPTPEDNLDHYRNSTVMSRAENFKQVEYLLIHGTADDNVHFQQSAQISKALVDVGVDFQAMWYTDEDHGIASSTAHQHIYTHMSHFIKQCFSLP

As a reminder, the IC50 is the midpoint of a concentration-inhibition curve. In the case of `CS(=O)(=O)N1CCC2(CCN([C@H]3CO[C@H](c4cc(F)ccc4F)[C@@H](N)C3)C2)C1` (stereo partly drawn) [Compound 2, (2R,3S,5R)-2-(2,5-difluorophenyl)-5-(7-(methylsulfonyl)-2,7-diazaspiro[4.4]-nonan-2-yl)tetrahydro-2H-pyran-3-amine], at DPP-IV enzyme, the IC50 is under 0.01 µM. Moreover, in the assay on C57BL/6J mice, the change in vivo at 0.3 mg/kg is -25.7 ± 1.8%.

On to `N[C@H]1C[C@@H](N2CC3CNCC3C2)CO[C@@H]1c1cc(F)ccc1F` (stereo partly drawn) [Compound 4, (2R,3S,5R)-2-(2,5-difluorophenyl)-5-(hexahydropyrrolo[3,4-c]pyrrol-2(1H)-yl)tetrahydro-2H-pyran-3-amine], for which the IC50 at DPP-IV enzyme was under 0.1 µM. Also, in the assay on C57BL/6J mice, the change in vivo at 0.3 mg/kg is -16.5 ± 3.8%. The matching figures for `N[C@H]1C[C@@H](N2CC3CN(S(=O)(=O)C(F)(F)F)CC3C2)CO[C@@H]1c1cc(F)ccc1F` (stereo partly drawn) [Compound 5, (2R,3S,5R)-2-(2,5-difluorophenyl)-5-(5-((trifluoromethyl)sulfonyl)hexahydropyrrolo[3,4-c]pyrrol-2(1H)-yl)tetrahydro-2H-pyran-3-amine]: under 0.1 µM and -7.6 ± 1.3%. As to `N[C@H]1C[C@@H](N2CC3CN(S(=O)(=O)c4ccccc4)CC3C2)CO[C@@H]1c1cc(F)ccc1F` (stereo partly drawn) [Compound 6, (2R,3S,5R)-2-(2,5-difluorophenyl)-5-(5-(phenylsulfonyl)hexahydropyrrolo[3,4-c]pyrrol-2(1H)-yl)tetrahydro-2H-pyran-3-amine], the IC50 at DPP-IV enzyme was under 0.1 µM. For the same molecule, the change in vivo at 0.3 mg/kg in the assay with C57BL/6J mice was -7.3 ± 1.6%. Regarding `CN(C)S(=O)(=O)N1CC2CN([C@H]3CO[C@H](c4cc(F)ccc4F)[C@@H](N)C3)CC2C1` (stereo partly drawn) [Compound 7, 5-((3R,5S,6R)-5-amino-6-(2,5-difluorophenyl)tetrahydro-2H-pyran-3-yl)-N,N-dimethylhexahydropyrrolo[3,4-c]pyrrole-2(1H)-sulfonamide], the IC50 at DPP-IV enzyme is under 0.01 µM. Further, in the assay on C57BL/6J mice, the change in vivo at 0.3 mg/kg was -7.9 ± 1.2%. Consider `CN(C)S(=O)(=O)N1CC2=C(CN([C@H]3CO[C@H](c4cc(F)ccc4F)[C@@H](N)C3)C2)C1` [Compound 9, 5-((3R,5S,6R)-5-amino-6-(2,5-difluorophenyl)tetrahydro-2H-pyran-3-yl)-N,N-dimethyl-3,4,5,6-tetrahydropyrrolo[3,4-c]pyrrole-2(1H)-sulfonamide], for which the IC50 at DPP-IV enzyme is under 0.01 µM. In the assay with C57BL/6J mice, the change in vivo at 0.3 mg/kg was -34.7 ± 4.4%. `N[C@H]1C[C@@H](N2CC3C(=O)N(C4CC4)C(=O)C3C2)CO[C@@H]1c1cc(F)ccc1F` (stereo partly drawn) [Compound 10, 5-((3R,5S,6R)-5-amino-6-(2,5-difluorophenyl)tetrahydro-2H-pyran-3-yl)-2-cyclopropyltetrahydropyrrolo[3,4-c]pyrrole-1,3(2H,3aH)-dione]: the IC50 on DPP-IV enzyme is under 0.1 µM. In addition, in the assay with C57BL/6J mice, the change in vivo at 0.3 mg/kg was -12.5 ± 1.3%. The matching figures for `N[C@H]1C[C@@H](N2CC3C(=O)N(Cc4ccccc4)C(=O)C3C2)CO[C@@H]1c1cc(F)ccc1F` (stereo partly drawn) [Compound 11, 5-((3R,5S,6R)-5-amino-6-(2,5-difluorophenyl)tetrahydro-2H-pyran-3-yl)-2-benzyltetrahydropyrrolo[3,4-c]pyrrole-1,3(2H,3aH)-dione]: under 0.1 µM and -25.6 ± 3.2%. Consider `CS(=O)(=O)N1CCC2CN([C@H]3CO[C@H](c4cc(F)ccc4F)[C@@H](N)C3)CC2C1` (stereo partly drawn) [Compound 12, (2R,3S,5R)-2-(2,5-difluorophenyl)-5-(5-(methylsulfonyl)hexahydro-1H-pyrrolo[3,4-c]pyridin-2(3H)-yl)tetrahydro-2H-pyran-3-amine], for which the IC50 at DPP-IV enzyme is under 0.1 µM. In the assay with C57BL/6J mice, the change in vivo at 0.3 mg/kg is -9.8 ± 1.5%. For the molecule `CS(=O)(=O)N1CC2CCN([C@H]3CO[C@H](c4cc(F)ccc4F)[C@@H](N)C3)CC2C1` (stereo partly drawn) [Compound 13, (2R,3S,5R)-2-(2,5-difluorophenyl)-5-(2-(methylsulfonyl)hexahydro-1H-pyrrolo[3,4-c]pyridin-5(6H)-yl)tetrahydro-2H-pyran-3-amine], the IC50 at DPP-IV enzyme is under 0.01 µM. In addition, the change in vivo at 0.3 mg/kg with C57BL/6J mice was -26.4 ± 1.6%. Regarding `CS(=O)(=O)N1CCC2(CCN([C@H]3CO[C@H](c4cc(F)ccc4F)[C@@H](N)C3)C2)CC1` [Compound 14, (2R,3S,5R)-2-(2,5-difluorophenyl)-5-(8-(methylsulfonyl)-2,8-diazaspiro[4.5]decan-2-yl)tetrahydro-2H-pyran-3-amine], the IC50 at DPP-IV enzyme was under 0.1 µM. In addition, the change in vivo at 0.3 mg/kg in the assay on C57BL/6J mice is -14.2 ± 3.4%. The matching figures for `CS(=O)(=O)N1CCC2CN([C@H]3CO[C@H](c4cc(F)ccc4F)[C@@H](N)C3)CC21` (stereo partly drawn) [Compound 15, (2R,3S,5R)-2-(2,5-difluorophenyl)-5-(1-(methylsulfonyl)hexahydropyrrolo[3,4-b]pyrrol-5(1H)-yl)tetrahydro-2H-pyran-3-amine]: under 0.1 µM and -42 ± 1.8%. The matching figures for `CS(=O)(=O)N1CC2CCN([C@H]3CO[C@H](c4cc(F)ccc4F)[C@@H](N)C3)C2C1` (stereo partly drawn) [Compound 16, (2R,3S,5R)-2-(2,5-difluorophenyl)-5-(5-(methylsulfonyl)hexahydropyrrolo[3,4-b]pyrrol-1(2H)-yl)tetrahydro-2H-pyran-3-amine]: under 0.1 µM and -29.4 ± 6.8%. Turning to `N[C@H]1C[C@@H](N2CC3CN(Cc4ccccc4)CC3C2)CO[C@@H]1c1cc(F)ccc1F` (stereo partly drawn) [Compound 18, (2R,3S,5R)-5-(5-benzylhexahydropyrrolo[3,4-c]pyrrol-2(1H)-yl)-2-(2,5-difluorophenyl)tetrahydro-2H-pyran-3-amine], the IC50 on DPP-IV enzyme was under 0.1 µM. Moreover, the change in vivo at 0.3 mg/kg in the assay with C57BL/6J mice was -12.6 ± 4%. As for `CS(=O)(=O)N1C[C@H]2CN([C@H]3CO[C@H](c4cc(F)ccc4F)[C@@H](N)C3)C[C@H]21` [Compound 19, (2R,3S,5R)-2-(2,5-difluorophenyl)-5-((1R,5S)-6-(methylsulfonyl)-3,6-diazabicyclo[3.2.0]heptan-3-yl)tetrahydro-2H-pyran-3-amine], at DPP-IV enzyme, the IC50 is under 0.1 µM. In addition, in the assay on C57BL/6J mice, the change in vivo at 0.3 mg/kg was -20.6 ± 3%. The matching figures for `CS(=O)(=O)N1C[C@H]2CN([C@H]3CO[C@H](c4cc(F)ccc4F)[C@@H](N)C3)[C@H]2C1` [Compound 20, (2R,3S,5R)-2-(2,5-difluorophenyl)-5-((1R,5R)-3-(methylsulfonyl)-3,6-diazabicyclo[3.2.0]heptan-6-yl)tetrahydro-2H-pyran-3-amine]: under 0.1 µM and -8.4 ± 1.7%.

For the molecule `CS(=O)(=O)NC1CC2CN([C@H]3CO[C@H](c4cc(F)ccc4F)[C@@H](N)C3)CC2C1` (stereo partly drawn) [Compound 21, N-(2-((3R,5S,6R)-5-amino-6-(2,5-difluorophenyl)tetrahydro-2H-pyran-3-yl)octahydrocyclopenta[c]pyrrol-5-yl)methanesulfonamide], the IC50 on DPP-IV enzyme was under 0.1 µM. Also, the change in vivo at 0.3 mg/kg in the assay on C57BL/6J mice is -15 ± 4%. The matching figures for `N[C@H]1C[C@@H](N2CC3=C(CN(C(=O)C4CC4)C3)C2)CO[C@@H]1c1cc(F)ccc1F` [Compound 22, (2R,3S,5R)-5-(5-(cyclopropanecarbonyl)-5,6-dihydropyrrolo[3,4-c]pyrrol-2(1H,3H,4H)-yl)-2-(2,5-difluorophenyl)tetrahydro-2H-pyran-3-amine]: under 0.03 µM and -25.1 ± 2%. The matching figures for `N[C@H]1C[C@@H](N2CC3=C(CN(C(=O)c4ccccc4)C3)C2)CO[C@@H]1c1cc(F)ccc1F` [Compound 23, (5-((3R,5S,6R)-5-amino-6-(2,5-difluorophenyl)tetrahydro-2H-pyran-3-yl)-5,6-dihydropyrrolo[3,4-c]pyrrol-2(1H,3H,4H)-yl)(phenyl)methanone]: under 0.03 µM and -22 ± 1.2%.

With `Cc1ccc(S(=O)(=O)N=S(C)(=O)N2CC3=C(CN([C@H]4CO[C@H](c5cc(F)ccc5F)[C@@H](N)C4)C3)C2)cc1` (stereo partly drawn) [Compound 49, (2R,3S,5R)-2-(2,5-difluorophenyl)-5-(5-(N-(4-methylbenzenesulfonyl)-S-methylsulfonimidoyl)-5,6-dihydropyrrolo[3,4-c]pyrrol-2(1H,3H,4H)-yl)tetrahydro-2H-pyran-3-amine], the IC50 at DPP-IV enzyme was under 0.01 µM.
